# Test results from ChEMBL document CHEMBL1201862, “PubChem BioAssay data set” (2004).
# Active and inactive are the calls of the source.
# Tests used:
# [1] = Luminescence Cell-Based Dose Retest to Confirm Inhibitors of Cancer Stem Cells. [Related pubchem assays (depositor defined):AID2717, AID2721]; format: functional; conditions: Homo sapiens
# Fatty acid synthase [2] = biological target: T1, Fatty acid synthase (Homo sapiens, UniProt P49327); test: FAS thioesterase domain inhibitors, dose response, biochemical, kinetic fluorescence intensity (AID 624326); format: functional;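 note: rate of fluorescence rise from hydrolysis of a fluorogenic O-methyl fluorescein ester substrate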
# T1 sequence (P49327 whole entry, the tested form may be a part): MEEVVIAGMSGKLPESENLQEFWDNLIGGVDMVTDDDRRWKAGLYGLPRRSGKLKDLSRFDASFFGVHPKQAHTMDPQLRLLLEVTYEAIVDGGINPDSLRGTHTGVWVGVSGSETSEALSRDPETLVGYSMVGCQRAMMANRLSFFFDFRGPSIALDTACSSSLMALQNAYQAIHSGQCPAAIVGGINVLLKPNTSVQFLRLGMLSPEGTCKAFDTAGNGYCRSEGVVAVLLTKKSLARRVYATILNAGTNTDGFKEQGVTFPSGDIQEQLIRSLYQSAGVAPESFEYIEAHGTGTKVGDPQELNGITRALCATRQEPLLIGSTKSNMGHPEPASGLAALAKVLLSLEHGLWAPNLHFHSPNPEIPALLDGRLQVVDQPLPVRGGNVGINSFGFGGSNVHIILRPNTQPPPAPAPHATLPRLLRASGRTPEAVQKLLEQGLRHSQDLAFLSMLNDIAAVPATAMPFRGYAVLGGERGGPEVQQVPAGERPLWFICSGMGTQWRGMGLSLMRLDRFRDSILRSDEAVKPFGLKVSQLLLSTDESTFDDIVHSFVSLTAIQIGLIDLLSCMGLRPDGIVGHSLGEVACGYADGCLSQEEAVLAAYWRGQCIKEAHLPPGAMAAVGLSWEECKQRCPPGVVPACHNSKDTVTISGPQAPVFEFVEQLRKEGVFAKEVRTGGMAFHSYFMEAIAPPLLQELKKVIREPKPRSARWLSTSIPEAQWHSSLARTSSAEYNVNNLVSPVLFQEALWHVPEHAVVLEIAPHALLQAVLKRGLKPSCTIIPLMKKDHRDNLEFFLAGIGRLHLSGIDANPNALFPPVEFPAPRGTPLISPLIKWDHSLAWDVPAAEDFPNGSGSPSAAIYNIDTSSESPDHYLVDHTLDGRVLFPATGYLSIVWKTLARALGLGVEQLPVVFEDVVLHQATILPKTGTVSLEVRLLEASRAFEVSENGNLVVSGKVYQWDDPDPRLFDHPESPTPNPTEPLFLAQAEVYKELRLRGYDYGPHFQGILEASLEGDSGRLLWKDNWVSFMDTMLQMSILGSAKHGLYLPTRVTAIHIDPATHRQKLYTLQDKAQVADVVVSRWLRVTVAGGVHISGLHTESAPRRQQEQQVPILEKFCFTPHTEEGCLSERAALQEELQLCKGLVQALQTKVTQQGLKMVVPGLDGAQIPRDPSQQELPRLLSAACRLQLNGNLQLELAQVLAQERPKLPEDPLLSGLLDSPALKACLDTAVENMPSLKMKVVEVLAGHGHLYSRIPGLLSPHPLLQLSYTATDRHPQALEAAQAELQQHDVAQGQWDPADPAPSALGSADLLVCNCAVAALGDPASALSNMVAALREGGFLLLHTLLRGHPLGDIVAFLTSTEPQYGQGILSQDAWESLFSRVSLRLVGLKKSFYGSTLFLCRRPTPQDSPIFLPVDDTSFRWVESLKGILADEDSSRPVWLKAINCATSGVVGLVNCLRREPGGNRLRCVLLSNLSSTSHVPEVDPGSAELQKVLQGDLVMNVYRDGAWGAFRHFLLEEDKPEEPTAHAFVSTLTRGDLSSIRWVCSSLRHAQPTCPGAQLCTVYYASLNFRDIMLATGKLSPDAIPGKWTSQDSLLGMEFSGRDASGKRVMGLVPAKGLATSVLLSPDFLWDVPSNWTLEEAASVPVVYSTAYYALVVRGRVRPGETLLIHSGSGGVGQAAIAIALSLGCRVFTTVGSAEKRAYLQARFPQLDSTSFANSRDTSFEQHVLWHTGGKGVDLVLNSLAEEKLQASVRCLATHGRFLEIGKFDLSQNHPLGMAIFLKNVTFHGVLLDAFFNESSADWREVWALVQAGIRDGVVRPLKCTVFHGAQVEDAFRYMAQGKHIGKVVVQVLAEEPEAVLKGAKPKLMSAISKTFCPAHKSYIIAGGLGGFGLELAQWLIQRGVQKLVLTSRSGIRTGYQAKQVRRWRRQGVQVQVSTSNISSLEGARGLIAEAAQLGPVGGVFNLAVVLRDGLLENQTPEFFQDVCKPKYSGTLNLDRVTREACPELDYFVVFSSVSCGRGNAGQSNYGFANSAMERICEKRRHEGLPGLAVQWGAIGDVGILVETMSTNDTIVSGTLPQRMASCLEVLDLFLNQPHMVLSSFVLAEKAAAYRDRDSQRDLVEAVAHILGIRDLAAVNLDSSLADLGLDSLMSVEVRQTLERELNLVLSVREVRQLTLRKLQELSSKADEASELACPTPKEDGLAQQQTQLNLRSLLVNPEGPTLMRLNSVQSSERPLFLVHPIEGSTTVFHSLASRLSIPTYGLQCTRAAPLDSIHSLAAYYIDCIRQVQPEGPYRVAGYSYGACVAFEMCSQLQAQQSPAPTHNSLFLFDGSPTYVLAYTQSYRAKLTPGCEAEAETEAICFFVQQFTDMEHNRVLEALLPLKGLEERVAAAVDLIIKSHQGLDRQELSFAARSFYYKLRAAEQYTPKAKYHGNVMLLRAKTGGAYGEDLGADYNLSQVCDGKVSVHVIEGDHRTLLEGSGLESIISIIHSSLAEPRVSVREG
# Fatty acid synthase [3] = biological target: T1, Fatty acid synthase; test: FAS thioesterase domain inhibitors, dose response, biochemical, endpoint fluorescence intensity, uHTS hits (AID 624327); format: functional;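 note: fluorescence from hydrolysis of an O-methyl fluorescein acyl ester substrate by the enzyme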
# [4] = inhibitors of SNCA 5'UTR-driven reporter translation, confirmation, H4 neuroglioma cells, luminescence (AID 1988); format: functional, cell-based
# [5] = Luminescence Cell-Based Dose Response HTS to Identify Inhibitors of 5'UTR Stem-Loop Driven Prion Protein mRNA Translation in H4 Neuroglioblastoma Cells. [Related pubchem assays: 1827 (Project Summary), 1813 (Primary HTS)]; format: functional
# Streptococcus = test: Group A Streptococcus viability loss, dose response, counter-screen for streptokinase expression inhibitor project, luminescence, BacTiterGlo (AID 1915); format: functional, organism-based;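 note: potency for reduction of bacterial viability or growth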
# [6] = inhibitors of firefly luciferase expression or activity, dose response, H4 neuroglioma cells, luminescence (AID 1990); format: functional, cell-based
# [7] = tested on: Streptococcus sp. 'group A'; test: growth inhibition of control SK(-) GAS strain, dose response, counter-screen for streptokinase expression inhibitor project, luminescence, kanamycin, BacTiterGlo, confirmation (AID 1900); format: functional, organism-based
# [8] = biological target: T2, Short transient receptor potential channel 4 (Mus musculus, UniProt Q9QUQ5); test: mouse TRPC4 channel activators, dose response, cell-based, HEK293 TRPC4/mu-opioid, Fluo-4 calcium (AID 434937); format: functional
# T2 sequence (Q9QUQ5 whole entry): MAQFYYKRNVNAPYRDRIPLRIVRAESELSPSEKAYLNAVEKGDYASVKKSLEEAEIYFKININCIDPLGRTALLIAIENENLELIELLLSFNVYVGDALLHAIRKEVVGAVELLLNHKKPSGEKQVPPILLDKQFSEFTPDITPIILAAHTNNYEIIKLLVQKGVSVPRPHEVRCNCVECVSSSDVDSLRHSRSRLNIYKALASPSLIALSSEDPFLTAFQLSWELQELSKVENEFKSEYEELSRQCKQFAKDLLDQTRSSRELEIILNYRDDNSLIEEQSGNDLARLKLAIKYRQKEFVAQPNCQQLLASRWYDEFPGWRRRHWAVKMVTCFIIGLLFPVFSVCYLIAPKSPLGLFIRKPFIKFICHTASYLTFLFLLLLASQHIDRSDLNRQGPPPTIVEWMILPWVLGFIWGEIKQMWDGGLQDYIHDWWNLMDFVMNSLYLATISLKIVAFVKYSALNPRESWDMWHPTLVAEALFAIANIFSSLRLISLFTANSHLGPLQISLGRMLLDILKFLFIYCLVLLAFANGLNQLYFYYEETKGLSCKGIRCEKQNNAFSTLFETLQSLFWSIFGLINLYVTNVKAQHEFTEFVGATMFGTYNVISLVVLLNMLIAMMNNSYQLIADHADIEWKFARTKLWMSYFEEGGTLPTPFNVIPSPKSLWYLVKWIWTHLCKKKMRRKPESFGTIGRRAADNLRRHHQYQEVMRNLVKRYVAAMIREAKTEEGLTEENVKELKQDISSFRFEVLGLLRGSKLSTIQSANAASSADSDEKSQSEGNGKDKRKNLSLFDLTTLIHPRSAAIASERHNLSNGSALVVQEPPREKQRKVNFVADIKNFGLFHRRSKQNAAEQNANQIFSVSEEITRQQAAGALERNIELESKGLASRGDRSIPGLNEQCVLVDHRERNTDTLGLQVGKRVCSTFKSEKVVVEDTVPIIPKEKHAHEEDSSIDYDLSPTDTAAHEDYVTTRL
# [9] = C. albicans growth with fluconazole, confirmation, fluorescence, retest (AID 2467); format: functional, cell-based
# [10] = NIH-3T3 fibroblast cytotoxicity, dose response, cytotoxicity control, cell-based, fluorescence, Alamar Blue, secondary assay (AID 2327); format: functional;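 note: NIH-3T3 mouse fibroblasts cultured with fluconazole at 8 µg/mL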
# Vero = test: cells; format: functional; conditions: Chlorocebus sabaeus
# [11] = biological target: T3, DNA repair protein RAD52 homolog (Homo sapiens, UniProt P43351); format: functional, biochemical
# T3 sequence (P43351 whole entry): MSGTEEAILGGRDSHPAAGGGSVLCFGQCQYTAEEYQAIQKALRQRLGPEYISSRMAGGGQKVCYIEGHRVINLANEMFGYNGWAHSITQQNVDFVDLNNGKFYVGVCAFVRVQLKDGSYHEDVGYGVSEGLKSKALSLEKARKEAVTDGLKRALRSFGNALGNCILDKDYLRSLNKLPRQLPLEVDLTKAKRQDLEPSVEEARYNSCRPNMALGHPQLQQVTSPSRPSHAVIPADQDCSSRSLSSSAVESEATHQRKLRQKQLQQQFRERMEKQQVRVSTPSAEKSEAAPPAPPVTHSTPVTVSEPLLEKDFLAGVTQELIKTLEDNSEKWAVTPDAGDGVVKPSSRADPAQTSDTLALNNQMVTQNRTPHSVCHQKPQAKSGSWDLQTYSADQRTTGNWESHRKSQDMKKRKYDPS
# [12] = biological target: Heat shock protein HSP 90-alpha (Homo sapiens, UniProt P07900); format: functional, organism-based
# [13] = inhibitors of intracellular T. cruzi replication, confirmation, NIH3T3 host cells, beta-gal luminescence (AID 2044); format: functional, cell-based;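 note: intracellular parasites grown in NIH/3T3 mouse fibroblasts as host cells; luminescent beta-galactosidase reporter signal from transgenic T. cruzi replicating inside host cells; inhibitors lower the luminescence signal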
# [14] = biological target: Photoreceptor-specific nuclear receptor (Homo sapiens, UniProt Q9Y5X4); format: functional, cell-based;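 note: CHO-S cells with Gal4-NCOR and VP16-NR2E3 two-hybrid luciferase reporter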
# Chain of Photoreceptor-specific nuclear receptor (Q9Y5X4 whole entry, the tested form may be a part): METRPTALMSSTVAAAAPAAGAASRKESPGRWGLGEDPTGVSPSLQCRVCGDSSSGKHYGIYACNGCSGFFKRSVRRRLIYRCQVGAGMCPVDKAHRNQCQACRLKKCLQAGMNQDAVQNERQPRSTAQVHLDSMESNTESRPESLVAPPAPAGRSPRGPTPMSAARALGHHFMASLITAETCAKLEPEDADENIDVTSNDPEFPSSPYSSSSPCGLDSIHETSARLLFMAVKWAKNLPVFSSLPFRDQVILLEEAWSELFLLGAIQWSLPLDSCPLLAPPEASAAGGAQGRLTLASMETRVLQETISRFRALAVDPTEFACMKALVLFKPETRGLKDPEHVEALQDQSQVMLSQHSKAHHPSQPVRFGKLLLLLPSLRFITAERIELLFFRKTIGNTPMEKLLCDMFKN
# [15] = cytotoxicity toward NIH3T3 fibroblasts, dose response, counter-screen, cell-based, ATP luminescence, mouse fibroblasts (AID 2010); format: functional;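 note: cells exposed to compound for about 90 hours before reading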
# [16] = cytotoxicity in HEK-293T cells, dose response, cytotoxicity control for TCR NF-kB inhibitor project, luminescence, T-cell screen hits (AID 489026); format: functional, cell-based;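 note: cells exposed to compound about 14 hours before the viability readout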
# HEK293 = test: inhibitors of LMP1-driven NF-kB reporter, dose response, cell-based, HEK293, luciferase, cherry-pick (AID 588343); format: functional; conditions: Homo sapiens
# cells = format: functional
# [17] = biological target: T4, High affinity choline transporter 1 (Homo sapiens, UniProt Q9GZV3); test: CHT inhibitors, dose response, cell-based, 5-point CRC, membrane potential dye (AID 504840); format: functional
# T4 sequence (Q9GZV3 whole entry): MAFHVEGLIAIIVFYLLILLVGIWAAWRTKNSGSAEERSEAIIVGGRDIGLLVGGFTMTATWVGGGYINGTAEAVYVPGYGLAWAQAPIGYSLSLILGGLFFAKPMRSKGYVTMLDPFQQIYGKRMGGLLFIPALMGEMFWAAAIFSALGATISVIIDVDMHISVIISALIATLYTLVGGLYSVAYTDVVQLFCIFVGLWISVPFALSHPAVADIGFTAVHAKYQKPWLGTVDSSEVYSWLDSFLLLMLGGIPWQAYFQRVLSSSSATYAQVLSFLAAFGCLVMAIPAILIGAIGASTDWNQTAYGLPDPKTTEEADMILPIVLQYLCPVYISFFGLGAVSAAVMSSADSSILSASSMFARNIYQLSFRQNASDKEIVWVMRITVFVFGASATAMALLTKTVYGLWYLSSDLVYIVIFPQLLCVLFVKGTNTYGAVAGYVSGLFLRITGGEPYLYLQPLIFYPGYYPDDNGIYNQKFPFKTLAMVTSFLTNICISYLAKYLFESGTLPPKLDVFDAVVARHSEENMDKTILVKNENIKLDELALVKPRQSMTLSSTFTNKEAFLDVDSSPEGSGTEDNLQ
# [18] = biological target: T5, Histone-lysine N-methyltransferase NSD2 (Homo sapiens, UniProt O96028); format: biochemical
# T5 sequence (O96028 whole entry): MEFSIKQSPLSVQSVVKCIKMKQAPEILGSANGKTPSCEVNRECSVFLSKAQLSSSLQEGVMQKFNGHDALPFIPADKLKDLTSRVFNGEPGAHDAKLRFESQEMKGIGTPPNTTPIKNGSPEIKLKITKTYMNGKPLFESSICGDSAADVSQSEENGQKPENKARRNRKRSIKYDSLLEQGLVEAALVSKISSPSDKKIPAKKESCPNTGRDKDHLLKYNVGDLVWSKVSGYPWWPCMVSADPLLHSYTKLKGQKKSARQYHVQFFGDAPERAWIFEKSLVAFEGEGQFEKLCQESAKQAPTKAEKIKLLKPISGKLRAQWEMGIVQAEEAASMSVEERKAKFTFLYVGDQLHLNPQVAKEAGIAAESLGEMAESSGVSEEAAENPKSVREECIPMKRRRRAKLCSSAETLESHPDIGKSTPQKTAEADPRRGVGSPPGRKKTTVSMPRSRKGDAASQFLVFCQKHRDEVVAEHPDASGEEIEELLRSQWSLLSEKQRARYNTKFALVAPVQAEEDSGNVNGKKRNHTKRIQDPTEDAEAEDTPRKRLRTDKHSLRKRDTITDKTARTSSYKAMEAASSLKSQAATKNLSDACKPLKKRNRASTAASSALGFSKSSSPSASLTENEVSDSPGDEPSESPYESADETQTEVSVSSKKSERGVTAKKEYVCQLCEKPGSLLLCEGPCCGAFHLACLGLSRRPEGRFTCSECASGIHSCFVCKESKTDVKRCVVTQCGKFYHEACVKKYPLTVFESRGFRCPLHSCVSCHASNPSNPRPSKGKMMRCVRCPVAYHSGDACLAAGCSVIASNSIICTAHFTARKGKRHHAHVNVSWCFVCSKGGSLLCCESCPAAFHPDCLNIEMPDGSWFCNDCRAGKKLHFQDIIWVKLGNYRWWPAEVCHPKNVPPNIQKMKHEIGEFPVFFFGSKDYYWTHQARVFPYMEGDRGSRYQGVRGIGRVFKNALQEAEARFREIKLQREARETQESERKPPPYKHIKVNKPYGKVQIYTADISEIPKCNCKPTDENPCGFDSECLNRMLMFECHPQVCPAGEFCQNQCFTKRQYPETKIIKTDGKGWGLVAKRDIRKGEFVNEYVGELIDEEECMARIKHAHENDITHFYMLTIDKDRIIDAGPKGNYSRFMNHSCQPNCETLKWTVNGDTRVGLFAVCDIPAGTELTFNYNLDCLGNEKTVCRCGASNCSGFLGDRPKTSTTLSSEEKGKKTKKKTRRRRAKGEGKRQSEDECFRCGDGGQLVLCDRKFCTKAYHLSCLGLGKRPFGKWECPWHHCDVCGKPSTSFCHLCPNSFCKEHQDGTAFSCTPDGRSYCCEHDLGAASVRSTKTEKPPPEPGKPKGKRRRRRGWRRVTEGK
# [19] = microbe, parasite or virus in culture; format: functional; conditions: Mycobacterium tuberculosis
# [20] = HEp-2 cell cytotoxicity, dose response, cytotoxicity control for RSV inhibitor project, HTS (AID 2410); format: functional; conditions: human respiratory syncytial virus
compound,measurement,setting,value
COc1ccc(-c2csc3nc(-c4ccccc4F)oc(=O)c23)cc1OC,AC50,[1],5.19 µM (active)
same,IC50,Fatty acid synthase [2],6.25 µM (active)
same,IC50,Fatty acid synthase [3],9.02 µM (active)
COc1ccc(C(=O)NNC(=S)NC(=O)c2ccccc2)cc1,EC50,[4],15.5 µM (active)
same,EC50,[5],11.6 µM (active)
same,EC50,Streptococcus,3.03 µM (active)
same,EC50,[6],> 120 µM (not active)
same,EC50,[7],1.18 µM (active)
same,EC50,[8],5.96 µM (active)
same,EC50,[9],2.08 µM (active)
same,EC50,[10],> 150 µM (inactive)
COc1cc2cc(-c3ccc(OC)c(OC)c3C)nc(N)c2cc1OC,EC50,[4],0.344 µM (active)
same,CC50,Vero,1.67 µM (active)
same,EC50,[5],0.48 µM (active)
same,EC50,[6],0.597 µM (active)
same,AC50,[11],12.4 µM (active)
CCN1C(=O)/C(=C\C(=O)c2cccs2)c2cc(Br)ccc21,CC50,Vero,> 25 µM (active)
same,AC50,[12],3.66 µM (active)
CN=C(S)N=CNOCc1ccc(Cl)cc1Cl,EC50,[13],0.368 µM (active)
same,EC50,[9],< 0.03 µM (active)
same,EC50,[10],7.07 µM (inconclusive)
same,IC50,[14],3.21 µM (active)
same,EC50,[15],7.02 µM (active)
CC1=C(C(=O)OCc2ccc3c(c2)OCO3)C(c2ccc(Cl)cc2)NC(=O)N1 (centres undefined),IC50,[16],> 80 µM (inactive)
same,AC50,HEK293,0.299 µM (active)
COc1ccc(/C=C/c2nc3ccccc3c(=O)o2)cc1,EC50,[4],7.8 µM (inconclusive)
same,EC50,[5],3.01 µM (active)
same,IC50,cells,21.5 µM (active)
same,EC50,[6],8.15 µM (inconclusive)
same,AC50,HEK293,0.507 µM (active)
O=C1CC(O)(C(F)(F)F)Oc2c1ccc1ccccc21 (centres undefined),EC50,[8],9.44 µM (active)
same,IC50,[17],12.9 µM (active)
CCOc1cc(/C=C/C(=O)c2ccc(C)cc2)ccc1OCC(=O)N(C)C,CC50,Vero,> 25 µM (active)
CCC1(C)Cc2c(sc3[nH]c(=S)n(Cc4ccccc4)c(=O)c23)CO1 (centres undefined),IC50,[14],4.95 µM (active)
CC(C)(C)C(=O)Nc1ccc(Sc2ccc([N+](=O)[O-])cc2)cc1,IC50,[14],3.51 µM (active)
CCCCN(CC)CCNC(=O)c1ccc2c(Cl)c3c(nc2c1)CCC3,EC50,[8],0.024 µM (active)
same,AC50,[18],> 20 µM (inactive)
Cc1c(Cl)ccc2sc(N3CCN(C(=O)C4=COCCO4)CC3)nc12,CC50,[19],38.1 µM (active)
same,IC50,[14],4.06 µM (active)
CCC(=O)N1CCCc2cc(S(=O)(=O)N3CCN(c4ccccn4)CC3)ccc21,IC50,[14],2.3 µM (active)
COc1ccc(NC(=O)c2cc3ccccc3oc2=O)cc1,AC50,HEK293,0.673 µM (active)
O=C(Nc1ccc(CN2CCOCC2)cc1)c1ccc(-c2cc(Cl)ccc2Cl)o1,CC50,[20],4.45 µM (active)
same,CC50,Vero,21.1 µM (active)
same,CC50,[19],29.3 µM (active)
